# According to US11447504B2, “Macrocyclic chlorine substituted indole derivatives” (Bayer Aktiengesellschaft, priority 2017, dated 2022):
# Several values for one entry are separate records, joined by “and”; a condition that tells them apart may be missing. Identical values can stand only once. Counter-ions that a name gives are not always drawn. Like-named read-outs stand apart in the source and are kept apart here.
# What was measured:
# MCL-1 = MCL-1 (Homo sapiens (Human), UniProt Q07820, K194A/K197A/R201A); assay: Protein-protein interaction assay MCL-1/Noxa BH3 peptide (MCL-1 Assay, TR-FRET); format: binding; conditions: read-out: MCL-1 Assay IC50 (median)
# Chain of MCL-1 (Q07820 whole entry K194A/K197A/R201A, looked up, the tested form may be a part): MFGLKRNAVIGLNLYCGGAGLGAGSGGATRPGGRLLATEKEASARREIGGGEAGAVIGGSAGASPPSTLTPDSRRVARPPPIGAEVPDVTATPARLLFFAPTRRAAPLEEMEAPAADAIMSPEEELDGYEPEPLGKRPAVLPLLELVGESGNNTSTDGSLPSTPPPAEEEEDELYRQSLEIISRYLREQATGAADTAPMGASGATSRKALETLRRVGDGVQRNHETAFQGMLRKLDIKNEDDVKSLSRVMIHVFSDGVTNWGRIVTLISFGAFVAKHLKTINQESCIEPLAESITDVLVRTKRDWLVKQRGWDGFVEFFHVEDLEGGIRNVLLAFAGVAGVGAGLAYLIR
# Method: The dose-dependent inhibition by the compounds described in this invention of the interaction between MCL-1 and the BH3 domain of Noxa (both human) was determined using a steady state binding competition assay with time-resolved fluorescence energy transfer (TR-FRET) readout. […] The MBP-MCL-1 was purchased from Beryllium (Bedford, Mass., USA). The expression and purification of this protein construct has been described elsewhere (DOI:10.1371/journal.pone.0125010). The Noxa BH3-derived peptide can be obtained from e.g. Biosyntan (Berlin, Germany).
# For that, 100-fold concentrated DMSO solutions were prepared by serial dilutions (1:3.4) of a 2 mM stock solution in a clear, 384-well microtiter plate (Greiner Bio-One, Frickenhausen, Germany). From there, 50 nl were transferred in a dark test plate (Greiner Bio-One, Frickenhausen, Germany). […] This was followed by a 10-minute incubation step at 22° C. for pre-equilibration of the putative complex between MBP-MCL-1 and the compounds.
# (§1) The mixture was incubated in the dark for one hour at 22° C. and then overnight at 4° C.
# (§2) The resulting data (ratio) were normalized, taking 0% inhibition as the mean value of control measurements (usually 32 data points) where all reagents were included. In this case 50 nl DMSO were used instead of compounds. […] IC50 values were determined by regression analysis based on a 4 parameter equation (minimum, maximum, IC50, Hill; Y=Max+(Min−Max)/(1+(X/IC50)^Hill) using the Screener Software (Genedata).
# SUDHL5 [1] = assay: Antiproliferation assay 7, SUDHL5; format: cell-based; conditions: SUDHL5 cells, CellTiter-Glo, read-out: Antiproli SUDHL5 IC50 (median)
# Summary of the method: (§3)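 Proliferation over 72 h at 37° C was assessed by luminescent cell viability reagent, referenced to a day 0 plate.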
# SUDHL5 [2] = assay: Induction of caspase-3/7 activity (Assay 4), SUDHL5; format: cell-based; conditions: SUDHL5 cells
# Summary of the method: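 DLBCL cells treated with compounds for 3 hours at 37° C. Caspase-3/7 activity measured by Caspase-Glo 3/7 luminescence, with medium-only background subtracted.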
# SUDHL10 [3] = assay: Induction of cytotoxicity (Assay 6), SUDHL10
# SUDHL5 [4] = assay: Induction of cytotoxicity (Assay 6), SUDHL5
# BCL-XL = BCL-XL (Homo sapiens (Human), UniProt Q07817); assay: Protein-protein interaction assay BCL-XL/Bad BH3 peptide (BCL-XL Assay, TR-FRET); format: binding; conditions: read-out: BCL-XL Assay IC50 (median)
# Chain of BCL-XL (Q07817 other isoform, or with tags, fused parts or gaps): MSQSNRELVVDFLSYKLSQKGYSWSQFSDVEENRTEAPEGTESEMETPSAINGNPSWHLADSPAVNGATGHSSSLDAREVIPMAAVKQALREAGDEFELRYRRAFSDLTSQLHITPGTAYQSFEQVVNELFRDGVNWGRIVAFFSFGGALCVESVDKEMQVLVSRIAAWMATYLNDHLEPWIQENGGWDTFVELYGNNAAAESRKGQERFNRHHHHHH
# Method: Assay 2 Protein-Protein Interaction Assay: BCL-XL/Bad BH3 Peptide (BCL-XL Assay)
# The dose-dependent inhibition by the compounds described in this invention of the interaction between BCL-XL and the BH3 domain of Bad (both human) was determined using a steady state binding competition assay with time-resolved fluorescence energy transfer (TR-FRET) readout.
# For that, 100-fold concentrated DMSO solutions were prepared by serial dilutions (1:3.4) of a 2 mM stock solution in a clear, 384-well microtiter plate (Greiner Bio-One, Frickenhausen, Germany). From there, 50 nl were transferred in a dark test plate (Greiner Bio-One, Frickenhausen, Germany). […] This was followed by a 10-minute incubation step at 22° C. for pre-equilibration of the putative complex between His-BCL-XL and the compounds.
# The mixture was incubated in the dark for one hour at 22° C. and then overnight at 4° C. The formation of BCL-XL/Bad complexes was determined by measuring the resonance energy transfer of the anti-His- Eu-cryptate antibody to the streptavidin-XL665 present in the reaction.
# as §2
# MV-4-11 = assay: Antiproliferation assay 7, MV-4-11; format: cell-based; conditions: Homo sapiens, MV4-11, 72 h, MV-4-11 cells, CellTiter-Glo, read-out: Antiproli MV-4-11 IC50 median
# Summary of the method: as §3
# BCL-2 = BCL-2 (Homo sapiens (Human), UniProt P10415); assay: Protein-protein interaction assay BCL-2/Bad BH3 peptide (BCL-2 Assay, TR-FRET); format: binding; conditions: read-out: BCL-2 Assay IC50 (median)
# Chain of BCL-2 (P10415 other isoform, or with tags, fused parts or gaps): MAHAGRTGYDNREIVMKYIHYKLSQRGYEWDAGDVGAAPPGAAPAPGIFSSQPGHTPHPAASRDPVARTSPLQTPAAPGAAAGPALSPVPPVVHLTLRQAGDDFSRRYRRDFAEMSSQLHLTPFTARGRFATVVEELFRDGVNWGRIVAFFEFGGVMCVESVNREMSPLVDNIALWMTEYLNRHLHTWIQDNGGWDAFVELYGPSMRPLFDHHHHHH
# Method: The dose-dependent inhibition by the compounds described in this invention of the interaction between BCL-2 and the BH3 domain of Bad (both human) was determined using a steady state binding competition assay with time-resolved fluorescence energy transfer (TR-FRET) readout.
# For that, 100-fold concentrated DMSO solutions were prepared by serial dilutions (1:3.4) of a 2 mM stock solution in a clear, 384-well microtiter plate (Greiner Bio-One, Frickenhausen, Germany). From there, 50 nl were transferred in a dark test plate (Greiner Bio-One, Frickenhausen, Germany). […] This was followed by a 10-minute incubation step at 22° C. for pre-equilibration of the putative complex between His-BCL-2 and the compounds.
# as §1, §2
# SUDHL10 [5] = assay: Induction of caspase-3/7 activity (Assay 4), SUDHL10; format: cell-based; conditions: SUDHL10 cells
# Summary of the method: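 Luminescent Caspase-Glo 3/7 read-out after a 3 h, 37 °C compound exposure of the DLBCL line SUDHL10. Values are background-corrected using medium-only wells.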
# SK-BR-3 = assay: Antiproliferation assay 7, SK-BR-3; format: cell-based; conditions: Homo sapiens; SK-BR-3 cells, 72 hours, CellTiter-Glo; read-out: Antiproli SK-BR-3 IC50 median
# Method: Assessment of the Anti-Proliferative Effect of Compounds in Different Cell Lines
# The impact of compounds on the proliferation of different cell lines was assessed using the CellTiter-Glo® Luminescent Cell Viability reagent from Promega (G7573).
# In parallel, cells were plated in a reference (day 0) plate for time zero determination.
# Rim wells were excluded. The cells were incubated for 72 hours in a humidified incubator at 37° C. The day 0 plate was measured by adding 30 μL/well of CTG solution (CellTiter-Glo® Luminescent Cell Viability reagent, Promega G7573) to time zero wells in the reference plate followed by a 10 minutes incubation and luminescence reading at 0.1 ms. using the PHERAstar FS microplate reader (BMG Labtech).
# After 72 hours incubation, the treated plates were measured in the same way as the day 0 plate mentioned above.
# AMO-1 = assay: Antiproliferation assay 7, AMO-1; format: cell-based; conditions: AMO-1 cells, CellTiter-Glo, read-out: Antiproli AMO-1 IC50 median
# Summary of the method: as §3
# HMC-1-8 = assay: Antiproliferation assay 7, HMC-1-8; format: cell-based; conditions: HMC-1-8 cells, CellTiter-Glo, read-out: Antiproli HMC-1-8 IC50 median
# Summary of the method: as §3
# [6] = Homo sapiens, SU-DHL-5, 3 h, Caspase-Glo 3/7, read-out: Caspase SUDHL5 EC50 (median)
# [7] = Homo sapiens, SU-DHL10, 5 h, read-out: Cytotox SUDHL10 IC50 (median), SUDHL10 cells, 5 hours, CellTiter-Glo
# [8] = Homo sapiens, SU-DHL-5, 5 h, read-out: Cytotox SUDHL5 IC50 (median), SUDHL5 cells, 5 hours, CellTiter-Glo
# [9] = Homo sapiens, SU-DHL10, 3 h, Caspase-Glo 3/7, read-out: Caspase SUDHL10 EC50 (median)
# [10] = 3 hours, Caspase-Glo 3/7, read-out: Caspase SUDHL5 EC50 (median)
# [11] = read-out: Cytotox SUDHL10 IC50 (median), SUDHL10 cells, 5 hours, CellTiter-Glo
# [12] = read-out: Cytotox SUDHL5 IC50 (median), SUDHL5 cells, 5 hours, CellTiter-Glo
# [13] = 3 hours, Caspase-Glo 3/7, read-out: Caspase SUDHL10 EC50 (median)
smiles,measurement,setting,value
"CCc1c2c(nn1C)COC/C=C\Cn1c(C(=O)O)c(CCCOc3cccc4ccccc34)c3ccc(Cl)c-2c31 (racemic) [Example 18, (rac)-(11 Z)-4-chloro-3-ethyl-2-methyl-7-[3-(naphthalen-1-yloxy)propyl]-2,10,13,15-tetrahydropyrazolo[4′,3′:9,10][1,6]oxazacycloundecino[8,7,6-hi]indole-8-carboxylic Acid]",IC50,MCL-1,1.3 nM
same,IC50,"SUDHL5 [1]; Homo sapiens, SU-DHL-5, 72 h",1400 nM
same,EC50,SUDHL5 [2]; [6],1100 nM
same,IC50,SUDHL10 [3]; [7],1300 nM
same,IC50,SUDHL5 [4]; [8],1200 nM
same,IC50,BCL-XL,> 20000 nM
same,IC50,MV-4-11,4710 nM
same,IC50,BCL-2,> 20000 nM and 18700 nM and 20200 nM
same,EC50,SUDHL10 [5]; [9],1300 nM
"CCc1c2c(nn1C)COCCCCn1c(C(=O)O)c(CCCOc3cccc4ccccc34)c3ccc(Cl)c-2c31 (racemic) [Example 19, (rac)-4-chloro-3-ethyl-2-methyl-7-[3-(naphthalen-1-yloxy)propyl]-2,10,11,12,13,15-hexahydropyrazolo[4′,3′:9,10][1,6]oxazacycloundecino[8,7,6-hi]indole-8-carboxylic Acid]",IC50,"SUDHL5 [1]; Homo sapiens, SU-DHL-5, 72 h",570 nM
same,EC50,SUDHL5 [2]; [6],340 nM
same,IC50,SUDHL10 [3]; [7],440 nM
same,IC50,SUDHL5 [4]; [8],480 nM
same,IC50,MV-4-11,1650 nM
same,IC50,SK-BR-3,3260 nM
same,EC50,SUDHL10 [5]; [9],320 nM
"CCc1c2c(nn1C)CN(C)CCCCn1c(C(=O)O)c(CCCOc3cccc4ccccc34)c3ccc(Cl)c-2c31 (racemic) [Example 22, (rac)-4-chloro-3-ethyl-2,14-dimethyl-7-[3-(naphthalen-1-yloxy)propyl]-10,11,12,13,14,15-hexahydro-2H-pyrazolo[3′,4′:8,9][1,6]diazacycloundecino[10,11,1-hi]indole-8-carboxylic Acid]",IC50,"AMO-1; Homo sapiens, AMO1, 72 h",659 nM
same,IC50,"SUDHL5 [1]; Homo sapiens, SU-DHL-5, 72 h",280 nM
same,EC50,SUDHL5 [2]; [6],140 nM
same,IC50,SUDHL10 [3]; [7],400 nM
same,IC50,SUDHL5 [4]; [8],160 nM
same,IC50,MV-4-11,692 nM
same,IC50,SK-BR-3,894 nM
same,EC50,SUDHL10 [5]; [9],270 nM
"CCc1c2c(nn1C)N(C)CCCCCn1c(C(=O)O)c(CCCOc3cccc4cc(F)ccc34)c3ccc(Cl)c-2c31 (racemic) [Example 77, (rac)-4-chloro-3-ethyl-7-{3-[(6-fluoronaphthalen-1-yl)oxy]propyl}-2,15-dimethyl-10,11,12,13,14,15-hexahydro-2H-pyrazolo[4′,3′:4,5][1,6]diazacycloundecino[3,2,1-hi]indole-8-carboxylic Acid]",IC50,"AMO-1; Homo sapiens, AMO1, 72 h",530 nM
same,IC50,MCL-1,1.1 nM
same,IC50,HMC-1-8; 72 h,3300 nM
same,IC50,"SUDHL5 [1]; Homo sapiens, SU-DHL-5, 72 h",970 nM
same,EC50,SUDHL5 [2]; [6],480 nM
same,IC50,SUDHL10 [3]; [7],870 nM
same,IC50,SUDHL5 [4]; [8],450 nM
same,IC50,BCL-XL,> 20000 nM
same,IC50,BCL-2,17000 nM
same,EC50,SUDHL10 [5]; [9],490 nM
"Cc1c2c(nn1C)N(C)CCCCCn1c(C(=O)O)c(CCCOc3cccc4ccccc34)c3ccc(Cl)c-2c31 (single isomer, unassigned) [Example 73, (−)-4-chloro-2,3,15-trimethyl-7-{3-[(naphthalen-1-yl)oxy]propyl}-10,11,12,13,14,15-hexahydro-2H-pyrazolo[4′,3′:4,5][1,6]diazacycloundecino[3,2,1-hi]indole-8-carboxylic acid]",IC50,AMO-1; 72 hours,18000 nM
same,IC50,MCL-1,16 nM
same,IC50,HMC-1-8; 72 hours,24000 nM
same,EC50,SUDHL5 [2]; [10],15000 nM
same,IC50,SUDHL10 [3]; [11],26000 nM
same,IC50,SUDHL5 [4]; [12],14000 nM
same,IC50,BCL-XL,> 20000 nM
same,IC50,BCL-2,> 20000 nM
same,EC50,SUDHL10 [5]; [13],18000 nM
"Cc1c2c(nn1C)N(C)CCCCCn1c(C(=O)O)c(CCCOc3cccc4cc(F)ccc34)c3ccc(Cl)c-2c31 [Example 76, (−)-4-chloro-7-{3-[(6-fluoronaphthalen-1-yl)oxy]propyl}-2,3,15-trimethyl-10,11,12,13,14,15-hexahydro-2H-pyrazolo[4′,3′:4,5][1,6]diazacycloundecino[3,2,1-hi]indole-8-carboxylic acid-N-ethylethanamine salt]",IC50,AMO-1; 72 hours,8600 nM
same,IC50,HMC-1-8; 72 hours,13000 nM
same,IC50,SUDHL5 [1]; 72 hours,4600 nM
same,EC50,SUDHL5 [2]; [10],3200 nM
same,IC50,SUDHL10 [3]; [11],7000 nM
same,IC50,SUDHL5 [4]; [12],3000 nM
same,IC50,BCL-XL,> 20000 nM
same,IC50,BCL-2,> 20000 nM
same,EC50,SUDHL10 [5]; [13],6100 nM
